Source: the NIST ThermoML archive (doi:10.1016/j.jct.2017.03.029)
Where “and” joins values, the source holds several entries; their conditions need not be identical. Equal values may be shown once.

Details: Transpiration method

Cc1ccccc1[N+](=O)[O-] [2-nitrotoluene]
Liquid
Details | vapor or sublimation pressure
278.3 K | 0.00328 kPa
278.4 K | 0.0032 kPa
283.3 K | 0.00526 kPa and 0.00502 kPa
288.3 K | 0.00806 kPa and 0.00804 kPa
293.2 K | 0.0124 kPa and 0.0119 kPa
298.2 K | 0.0181 kPa and 0.0175 kPa
303.1 K | 0.0259 kPa
303.2 K | 0.0273 kPa
308.1 K | 0.0381 kPa
308.2 K | 0.0391 kPa
313.1 K | 0.0563 kPa and 0.0555 kPa
318 K | 0.0765 kPa
318.1 K | 0.081 kPa
323 K | 0.108 kPa

Cc1cccc([N+](=O)[O-])c1 [3-nitrotoluene]
Liquid
Details | vapor or sublimation pressure
290.6 K | 0.00648 kPa
293.3 K | 0.00842 kPa
296.3 K | 0.0103 kPa
298.2 K | 0.012 kPa
299.2 K | 0.0127 kPa and 0.0133 kPa
302.2 K | 0.0163 kPa
302.3 K | 0.0168 kPa
303.2 K | 0.0176 kPa and 0.0173 kPa
305.3 K | 0.0211 kPa
308.2 K | 0.0259 kPa [middle of 4 runs]
308.3 K | 0.0267 kPa
311.4 K | 0.0335 kPa
313.2 K | 0.037 kPa and 0.0363 kPa and 0.0361 kPa
314.3 K | 0.0414 kPa
317.2 K | 0.0498 kPa
318.1 K | 0.0516 kPa
318.2 K | 0.0535 kPa and 0.0524 kPa
320.2 K | 0.0607 kPa
323.1 K | 0.0743 kPa and 0.0718 kPa
323.2 K | 0.0732 kPa and 0.0749 kPa
328.1 K | 0.103 kPa
333.1 K | 0.138 kPa
338 K | 0.187 kPa

Cc1ccc([N+](=O)[O-])cc1 [1-methyl-4-nitrobenzene]
Details | vapor or sublimation pressure
278.2 K, Crystal | 0.00067 kPa
279.6 K, Crystal | 0.0008 kPa
283.3 K, Crystal | 0.00113 kPa
288.2 K, Crystal | 0.00211 kPa
288.3 K, Crystal | 0.00196 kPa
290.3 K, Crystal | 0.00271 kPa
292.2 K, Crystal | 0.00326 kPa
293.2 K, Crystal | 0.00332 kPa
296.8 K, Crystal | 0.00539 kPa
298.2 K, Crystal | 0.00566 kPa
298.3 K, Crystal | 0.00599 kPa
301.4 K, Crystal | 0.00833 kPa
303.2 K, Crystal | 0.00937 kPa
304.3 K, Crystal | 0.011 kPa
307.4 K, Crystal | 0.015 kPa
308.2 K, Crystal | 0.0151 kPa and 0.0149 kPa
310.3 K, Crystal | 0.0193 kPa
313.2 K, Crystal | 0.0252 kPa and 0.0239 kPa
314.3 K, Crystal | 0.0292 kPa
315.2 K, Crystal | 0.0309 kPa
315.7 K, Crystal | 0.033 kPa
316.2 K, Crystal | 0.0354 kPa
316.7 K, Crystal | 0.0359 kPa
317.2 K, Crystal | 0.0383 kPa
318.2 K, Crystal | 0.04 kPa and 0.0377 kPa
319.3 K, Crystal | 0.0438 kPa
320.3 K, Crystal | 0.0483 kPa
321.2 K, Crystal | 0.0523 kPa
322.2 K, Crystal | 0.0569 kPa
323.1 K, Crystal | 0.0544 kPa and 0.0572 kPa
323.3 K, Crystal | 0.0626 kPa
324.3 K, Crystal | 0.0673 kPa
326.2 K, Liquid | 0.0797 kPa
328.1 K, Liquid | 0.0862 kPa and 0.0853 kPa
329.2 K, Liquid | 0.097 kPa
332.2 K, Liquid | 0.1207 kPa and 0.1198 kPa
333 K, Liquid | 0.117 kPa and 0.113 kPa
335.3 K, Liquid | 0.1411 kPa
338 K, Liquid | 0.162 kPa and 0.155 kPa
338.2 K, Liquid | 0.168 kPa
341.2 K, Liquid | 0.1995 kPa
343 K, Liquid | 0.216 kPa and 0.21 kPa
344.4 K, Liquid | 0.2417 kPa
347.1 K, Liquid | 0.2802 kPa
347.9 K, Liquid | 0.274 kPa
348 K, Liquid | 0.29 kPa
350.2 K, Liquid | 0.3388 kPa
352.9 K, Liquid | 0.369 kPa
353 K, Liquid | 0.374 kPa
353.2 K, Liquid | 0.4024 kPa
357.9 K, Liquid | 0.483 kPa
358 K, Liquid | 0.504 kPa
362.9 K, Liquid | 0.622 kPa
363 K, Liquid | 0.66 kPa
367.9 K, Liquid | 0.841 kPa and 0.793 kPa
